We go through 17 compounds from patent US6284768A, “Src family SH2 domain inhibitors” (Boehringer Ingelheim Pharmaceuticals, Inc., priority 1999, dated 2001).

The target in assay [1] is T1, p56lck GST-SH2 (lck SH2 domain) (Homo sapiens, UniProt P06239).
T1 construct: GST (N)
Put plainly: Receptor-ligand equilibrium binding constants by surface plasmon resonance (biosensor), lck SH2 domain. Conditions: Table 1, compounds of formula (II). A general note: SPR reads the build-up and loss of mass on a sensor chip optically.

Assay [2] relates to Inter-leukin 2 (IL-2) production by activated Human Primary T Lymphocytes. Put plainly: Primary T cell assay: inhibition of IL-2 production by activated human primary CD4 positive T lymphocytes. Format: cell-based. Conditions: Homo sapiens, CD4 positive, Table 5; mean IC50 value; CD4 positive T cells activated with anti-CD3/anti-CD28, IL-2 by ELISA; read-out: IC50 (blocking IL-2 production). The protocol:
Summary of Primary T Cell Assay.
Inhibitors of the lck SH2 domain were assayed for their ability to block Inter-leukin 2 (IL-2) production by activated Human Primary T Lymphocytes. Peripheral blood mononuclear cells were isolated from whole blood by centrifugation in ficoll-Pague partitioning medium. CD4 positive cells were purified using negative selection. […] The compounds, at the appropriate dilutions, were added, and the cells were incubated for 60 minutes at 37° C. The CD4 positive T cells were then activated by the addition of anti-CD3 (60 ng/mL), anti CD28 (500 ng/mL) and goat anti mouse IgG coated beads, and incubated overnight at 37° C. The cells were pelleted, and the supernatents assayed for IL-2 by ELISA.
As SH2 domain containing proteins are intracellular, any therapeutic agent must be able to cross biological membranes. […] These characteristics may be quantified by observing inhibition in IL-2 production in human blood CD4 positive T-lymphocytes after T cell receptor and CD28 cross-linking.
(In an ELISA, binding on a coated surface is turned into a signal by an enzyme label.)

T1 sequence (P06239 127-224 limits assumed): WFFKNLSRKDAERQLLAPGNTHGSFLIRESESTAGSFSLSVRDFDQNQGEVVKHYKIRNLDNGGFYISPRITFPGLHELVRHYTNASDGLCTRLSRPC

The term Kd denotes the concentration at which binding is half-saturated. Higher therefore signals weaker binding. In general, IC50 refers to the concentration at which inhibition is half-maximal. As for `COc1ccc(Cn2ccc(C)c(NC(=O)[C@H](Cc3ccc(C(C)(C)C(=O)O)cc3)NC(=O)Cc3ccc(C(C)C)cc3)c2=O)cc1` [Compound 94], the Kd in assay [1] stood at 210 nM. Moreover, the IC50 in assay [2] amounted to 156 µM.

Turning to `COc1ccc(Cn2ccc(C)c(NC(=O)[C@H](Cc3ccc(C(C)(C)C(=O)O)cc3)NC(=O)Cc3ccc4ccccc4c3)c2=O)cc1` [Compound 97], the Kd in assay [1] is 140 nM. Besides, the IC50 in assay [2] was determined as 113 µM.

`CCC(CC)(C(=O)O)c1ccc(C[C@H](NC(=O)Cc2ccc3ccccc3c2)C(=O)Nc2c(C)ccn(Cc3ccc(OC)cc3)c2=O)cc1` [Compound 106] registered a Kd in assay [1] of 470 nM. Besides, the IC50 in assay [2] was determined as 82 µM.

On to `CCC(C(=O)N[C@@H](Cc1ccc(C(C)(C)C(=O)O)cc1)C(=O)Nc1c(C)ccn(Cc2ccc(OC)cc2)c1=O)c1ccc2ccccc2c1` (stereo partly shown) [Compound 109], for which the Kd in assay [1] amounted to 330 nM. For the same compound, the IC50 in assay [2] was determined as 78 µM.

As for `COc1ccc(Cn2ccc(C)c(NC(=O)[C@H](Cc3ccc(C(C)(C)C(=O)O)cc3)NC(=O)Cc3ccc(Br)c4ccccc34)c2=O)cc1` [Compound 111], binding in assay [1] was put at a Kd of 510 nM. In addition, the IC50 in assay [2] stood at 64 µM.

`COc1ccc(Cn2ccc(C)c(NC(=O)[C@H](Cc3ccc(C(C)(C)C(=O)O)cc3)NC(=O)C(C)c3ccc(CC(C)C)cc3)c2=O)cc1` (stereo partly shown) [Compound 112] yielded a Kd in assay [1] of 1500 nM. For the same compound, the IC50 in assay [2] stood at 60 µM.

Take `COc1ccc(Cn2ccc(C)c(NC(=O)[C@H](Cc3ccc(C(C)(C)C(=O)O)cc3)NC(=O)Cc3c(C)cc(C)cc3C)c2=O)cc1` [Compound 117]: the affinity in assay [1], expressed as Kd, was 370 nM. Moreover, the IC50 in assay [2] came to 108 µM.

On to `COc1ccc(Cn2ccc(C)c(NC(=O)[C@H](Cc3ccc(C(C)(C)C(=O)O)cc3)NC(=O)C(C)(C)c3ccc(C(C)C)cc3)c2=O)cc1` [Compound 118], for which the Kd in assay [1] stood at 610 nM. The IC50 in assay [2] came to 61 µM.

`COc1ccc(Cn2ccc(C)c(NC(=O)[C@H](Cc3ccc(C(C)(C)C(=O)O)cc3)NC(=O)C(C)(C)c3cccc4ccccc34)c2=O)cc1` [Compound 119] came in with a Kd in assay [1] of 3600 nM. In addition, the IC50 in assay [2] amounted to 52 µM.

`CCC(CC)(C(=O)N[C@@H](Cc1ccc(C(C)(C)C(=O)O)cc1)C(=O)Nc1c(C)ccn(Cc2ccc(OC)cc2)c1=O)c1ccc2ccccc2c1` [Compound 123] came in with a Kd in assay [1] of 840 nM. The IC50 in assay [2] came to 35 µM.

In assay [1], `COc1ccc(Cn2ccc(C)c(NC(=O)[C@H](Cc3ccc(C(C)(C)C(=O)O)cc3)NC(=O)C(C)(C)c3ccc(CC(C)C)cc3)c2=O)cc1` [Compound 124] displayed a Kd of 1500 nM. Further, the IC50 in assay [2] worked out at 42 µM.

The compound `CCC(CC)(C(=O)NC(Cc1ccc(C2(C(=O)O)CCCC2)cc1)C(=O)Nc1c(C)ccn(Cc2ccc(OC)cc2)c1=O)c1ccc2ccccc2c1` (stereo not shown) [Compound 125] yielded a Kd in assay [1] of over 15000 nM. In addition, the IC50 in assay [2] came out at 29 µM.

Compound `CCC(C(=O)N[C@@H](Cc1ccc(C(C)(C)C(=O)O)cc1)C(=O)Nc1c(C)ccn(Cc2ccc(OC)cc2)c1=O)c1cccc2ccccc12` (stereo partly shown) [Compound 126] had a Kd in assay [1] of 680 nM. In addition, the IC50 in assay [2] came out at 39 µM.

In turn, `COc1ccc(Cn2ccc(C)c(NC(=O)[C@H](Cc3ccc(C(C)(C)C(=O)O)cc3)NC(=O)[C@@H](C)c3ccc(CC(C)C)cc3)c2=O)cc1` [Compound 127] registered a Kd in assay [1] of 1400 nM. Moreover, the IC50 in assay [2] was 52 µM.

The compound `Cc1ccn(Cc2ccc(C(F)(F)F)cn2)c(=O)c1NC(=O)[C@H](Cc1ccc(C(C)(C)C(=O)O)cc1)NC(=O)Cc1ccc2ccccc2c1` [Compound 128] showed a Kd in assay [1] of 1600 nM. The IC50 in assay [2] was 207 µM.

In assay [1], `Cc1ccn(Cc2ncc(C(F)(F)F)cc2Cl)c(=O)c1NC(=O)[C@H](Cc1ccc(C(C)(C)C(=O)O)cc1)NC(=O)Cc1ccc2ccccc2c1` [Compound 129] came in with a Kd of 2800 nM. Moreover, in assay [2], the IC50 stood at 107 µM.

`COc1ccc(Cn2ccc(C)c(NC(=O)[C@H](Cc3ccc(C(C)(C)C(=O)O)cc3)NC(=O)Cc3ccc(NCc4ccccc4)cc3)c2=O)cc1` [Compound 130] displayed a Kd in assay [1] of 840 nM. The IC50 in assay [2] is 181 µM.
